Data taken from paper PMC8284440, “Toward New Transmission-Blocking Combination Therapies: Pharmacokinetics of 10-Amino-Artemisinins and 11-Aza-Artemisinin and Comparison with Dihydroartemisinin and Artemether” (Antimicrobial Agents and Chemotherapy, 2021).
Values after ≈ are worked out from the molar mass of the structure shown.

System: early stage (>90% stage I-III) P. falciparum NF54 gametocytes
Test: not given
Settings: Table S3, ± SEM; ref 1 and 2 (supplement; main text 47, 48); read-out: Early Stage (EG, Luc 48 h) IC50; cited from earlier work

| Structure (SMILES) | IC50 [nM] |
| --- | --- |
| C[C@H]1[C@@H](O)O[C@@H]2O[C@@]3(C)CC[C@H]4[C@H](C)CC[C@@H]1[C@@]24OO3 [DHA 2, dihydroartemisinin] | 43 ± 3.9 |
| C[C@H]1[C@H](N2CCS(=O)(=O)CC2)O[C@@H]2O[C@@]3(C)CC[C@H]4[C@H](C)CC[C@@H]1[C@@]24OO3 [Artemisone 6, artemisone] | 1.94 |
| C[C@H]1[C@H](N2CCN(C(=O)Nc3ccc(F)cc3)CC2)O[C@@H]2O[C@@]3(C)CC[C@H]4[C@H](C)CC[C@@H]1[C@@]24OO3 [Arylurea 10] | 36 ± 10.2 |
| C[C@H]1[C@H](N2CCSCC2)O[C@@H]2O[C@@]3(C)CC[C@H]4[C@H](C)CC[C@@H]1[C@@]24OO3 [Artemiside 5, artemiside] | 16.4 ± 1 |
| C[C@H]1[C@H](NS(N)(=O)=O)O[C@@H]2O[C@@]3(C)CC[C@H]4[C@H](C)CC[C@@H]1[C@@]24OO3 [Sulfamide 7] | 15 ± 2 |

Same assay, conditions: Table S4, ± SEM, n = 3; ref 4 (supplement; main text 62); read-out: Early stage IC50 (Luciferase 48 h); cited from earlier work

| Structure (SMILES) | IC50 [nM] |
| --- | --- |
| C[C@@H]1CC[C@H]2[C@@H](C)C(=O)N[C@@H]3O[C@@]4(C)CC[C@@H]1[C@]32OO4 [11-Aza-artemisinin 11, 11-aza-artemisinin] | 170 |
| CO[C@H]1O[C@@H]2O[C@@]3(C)CC[C@H]4[C@H](C)CC[C@@H]([C@H]1C)[C@@]24OO3 [Artemether 3, artemether] | 37.7 ± 2.08 |

System: not listed separately
Test: Kinetic solubility
Format: physicochemical
Settings: FaSSIF buffer, 22 °C, pH 6.5, fassif, kinetic from dmso stock; read-out: Solubility FaSSIF pH 6.5
Protocol: For kinetic solubility assays, three solutions with differing pH were prepared. Phosphate-buffered saline (PBS) was prepared by mixing KH2PO4 (0.2 g), K2HPO4 (0.115 g), NaCl (0.8 g), and KCl (0.2 mg) in purified water (100 ml). The pH was measured and adjusted using 0.05 M HCl or 0.05 M NaOH to pH 7.4. The pH 2 solution was prepared by adding HCl (37%, 83 μl) to purified water (50 ml). FaSSIF buffer at pH 6.5 was prepared by adding KH2PO4 (2.042 g) and KCl (3.728 g) to purified water (450 ml) and adjusting the pH to 6.5 using 0.05 M HCl or 0.05 M NaOH as required. Simulated intestinal fluid (SIF) (Biorelevant, London, UK) powder (5.6 mg) was then added to the buffer (25 ml) to complete the process.
(i) Kinetic solubility. Duplicate stock solutions of each compound at a concentration of 10 mM in DMSO were prepared in a 96-well plate in PBS at pH 7.4, water at pH 2, and FaSSIF buffer at pH 6.5 to a final concentration of 200 μM ([68]). These three solutions mimic the pH and conditions of the gastrointestinal tract. As the FaSSIF buffer mimics the fasted state in vitro, solubility in this buffer provides a guide as to whether compounds should be dosed with or without meals ([87]). Calibration standards were prepared for each compound in DMSO at 11, 100, and 220 μM. These standards were used to produce a calibration curve required for calculation of the concentration of each compound in the test solutions. […] Plates were agitated on a plate shaker for 2 h (500 rpm, 22°C). Sample analysis was carried out by liquid chromatography-tandem mass spectrometry (LC-MS/MS) analysis as described in “Sample analysis” below. Peak areas were integrated, and calibration curves were constructed and used to calculate the concentrations of each compound in the three buffers.
Sample extraction. […] The organic layer was then transferred and evaporated under a gentle stream of nitrogen at room temperature for 30 min. The dried samples were reconstituted in mobile phase, and a 5 μl sample was injected for LC-MS/MS analysis. The only exception was the arylurea 10, for which no liquid-liquid extraction was conducted; instead, the 200 μl acetonitrile solution was evaporated under a gentle stream of nitrogen at room temperature. The dried sample was reconstituted in the mobile phase, and a 5 μl sample was injected for LC-MS/MS analysis. The plasma samples for each compound from the in vivo studies were extracted by mixing 350 μl ethyl acetate with 15 μl of plasma sample and 35 μl of universal buffer containing internal standard at pH 8. The samples were vortexed for 1 min and centrifuged for 5 min, and the organic layer was then transferred and evaporated under a gentle stream of nitrogen at room temperature for 30 min. The dried samples were each reconstituted in the mobile phase, and a 5 μl sample was injected for LC-MS/MS analysis.
LC-MS/MS analysis. For all the artemisinins except the arylurea 10, gradient chromatography was performed on a Phenomenex (Torrance, CA, USA) Luna PFP(2) analytical column (100 Å, 5 μm, 2 by 50 mm) and an AB Sciex API 5500 mass spectrometer which was operated at unit resolution in the multiple reaction monitoring (MRM) mode. The HPLC method used was a gradient method with 5 mM ammonium acetate and 0.1% acetic acid in water as the aqueous phase and a mixture of acetonitrile and methanol (1:1 vol/vol) containing 5% of the aqueous phase as the organic phase ([89]). The arylurea 10 was analyzed using a Phenomenex Gemini NX-C18 (5 μm, 2.1 mm by 50 mm) column with an AB Sciex 3200 QTRAP mass spectrometer operated at unit resolution in the MRM mode. The HPLC method used was a gradient method with 5 mM ammonium acetate and 0.1% acetic acid in water as the aqueous phase and a mixture of acetonitrile and methanol (1:1 vol/vol). The transitions of the molecular ions were monitored, as listed in Table S8 in the supporting information. The calibration range was between 0.002 μg/ml and 6.250 μg/ml.

| Structure (SMILES) | solubility at 2 h [µM] |
| --- | --- |
| C[C@@H]1CC[C@H]2[C@@H](C)C(=O)N[C@@H]3O[C@@]4(C)CC[C@@H]1[C@]32OO4 [11-Aza-artemisinin 11, 11-aza-artemisinin] | > 150 |
| C[C@H]1[C@H](N2CCS(=O)(=O)CC2)O[C@@H]2O[C@@]3(C)CC[C@H]4[C@H](C)CC[C@@H]1[C@@]24OO3 [Artemisone 6, artemisone] | 74.4 (≈ 29.9 µg/mL) |
| C[C@H]1[C@H](N2CCN(C(=O)Nc3ccc(F)cc3)CC2)O[C@@H]2O[C@@]3(C)CC[C@H]4[C@H](C)CC[C@@H]1[C@@]24OO3 [Arylurea 10] | 24 (≈ 11.8 µg/mL) |
| C[C@H]1[C@H](N2C=CS(=O)(=O)CC2)O[C@@H]2O[C@@]3(C)CC[C@H]4[C@H](C)CC[C@@H]1[C@@]24OO3 [M1 12] | 57.6 (≈ 23 µg/mL) |
| C[C@H]1[C@H](N2CCSCC2)O[C@@H]2O[C@@]3(C)CC[C@H]4[C@H](C)CC[C@@H]1[C@@]24OO3 [Artemiside 5, artemiside] | < 5 |
| C[C@H]1[C@H](NS(N)(=O)=O)O[C@@H]2O[C@@]3(C)CC[C@H]4[C@H](C)CC[C@@H]1[C@@]24OO3 [Sulfamide 7] | < 5 |

Same assay, conditions: PBS, 22 °C, pH 7.4, aqueous buffer, kinetic from dmso stock; read-out: Solubility pH 7.4

| Structure (SMILES) | solubility at 2 h [µM] |
| --- | --- |
| C[C@@H]1CC[C@H]2[C@@H](C)C(=O)N[C@@H]3O[C@@]4(C)CC[C@@H]1[C@]32OO4 [11-Aza-artemisinin 11, 11-aza-artemisinin] | 144 (≈ 40.6 µg/mL) |
| C[C@H]1[C@H](N2CCS(=O)(=O)CC2)O[C@@H]2O[C@@]3(C)CC[C@H]4[C@H](C)CC[C@@H]1[C@@]24OO3 [Artemisone 6, artemisone] | 120 (≈ 48.3 µg/mL) |
| C[C@H]1[C@H](N2CCN(C(=O)Nc3ccc(F)cc3)CC2)O[C@@H]2O[C@@]3(C)CC[C@H]4[C@H](C)CC[C@@H]1[C@@]24OO3 [Arylurea 10] | 27 (≈ 13.2 µg/mL) |
| C[C@H]1[C@H](N2C=CS(=O)(=O)CC2)O[C@@H]2O[C@@]3(C)CC[C@H]4[C@H](C)CC[C@@H]1[C@@]24OO3 [M1 12] | 74.5 (≈ 29.8 µg/mL) |
| C[C@H]1[C@H](N2CCSCC2)O[C@@H]2O[C@@]3(C)CC[C@H]4[C@H](C)CC[C@@H]1[C@@]24OO3 [Artemiside 5, artemiside] | < 5 |
| C[C@H]1[C@H](NS(N)(=O)=O)O[C@@H]2O[C@@]3(C)CC[C@H]4[C@H](C)CC[C@@H]1[C@@]24OO3 [Sulfamide 7] | 11.5 (≈ 4.17 µg/mL) |

Same assay, conditions: pH 2, FaSSIF pH 6.5 and pH 7.4 together; read-out: Solubility in the three aqueous solutions

| Structure (SMILES) | solubility at 2 h [µM] |
| --- | --- |
| C[C@@H]1CC[C@H]2[C@@H](C)C(=O)N[C@@H]3O[C@@]4(C)CC[C@@H]1[C@]32OO4 [11-Aza-artemisinin 11, 11-aza-artemisinin] | > 144 |

Same assay, conditions: pH 2 solution (HCl in water), 22 °C, pH 2, kinetic from dmso stock; read-out: Solubility pH 2

| Structure (SMILES) | solubility at 2 h [µM] |
| --- | --- |
| C[C@@H]1CC[C@H]2[C@@H](C)C(=O)N[C@@H]3O[C@@]4(C)CC[C@@H]1[C@]32OO4 [11-Aza-artemisinin 11, 11-aza-artemisinin] | > 150 |
| C[C@H]1[C@H](N2CCS(=O)(=O)CC2)O[C@@H]2O[C@@]3(C)CC[C@H]4[C@H](C)CC[C@@H]1[C@@]24OO3 [Artemisone 6, artemisone] | 73.7 (≈ 29.6 µg/mL) |
| C[C@H]1[C@H](N2CCN(C(=O)Nc3ccc(F)cc3)CC2)O[C@@H]2O[C@@]3(C)CC[C@H]4[C@H](C)CC[C@@H]1[C@@]24OO3 [Arylurea 10] | 10 (≈ 4.9 µg/mL) |
| C[C@H]1[C@H](N2C=CS(=O)(=O)CC2)O[C@@H]2O[C@@]3(C)CC[C@H]4[C@H](C)CC[C@@H]1[C@@]24OO3 [M1 12] | > 150 |
| C[C@H]1[C@H](N2CCSCC2)O[C@@H]2O[C@@]3(C)CC[C@H]4[C@H](C)CC[C@@H]1[C@@]24OO3 [Artemiside 5, artemiside] | 12.4 (≈ 4.58 µg/mL) |
| C[C@H]1[C@H](NS(N)(=O)=O)O[C@@H]2O[C@@]3(C)CC[C@H]4[C@H](C)CC[C@@H]1[C@@]24OO3 [Sulfamide 7] | > 150 |
